# Entries after “also recorded” stand apart in the source; their conditions may differ.
# How the values were obtained:
# ClC-1 protein [1] = assay: ClC-1 immunofluorescence, Mbnl1^ΔE3/ΔE3 mice; format: in vivo; details: TA muscle, 3 weeks; listed as antisense morpholino
# Procedure: FIGS. 27A, 27B, 27C, 27D, and 27E show antisense morpholino represses exon 7a inclusion, restores ClC-1 protein expression, and rescues myotonia in Mbnl1^ΔE3/ΔE3 mice. […] Bar=20 μM. […] Mean±s.d.; n=3 per group; **P<0.0001 antisense- versus invert-treated control; ANOVA.
# (§1) Frozen transverse sections of TA muscle (10 μM) were stained with affinity-purified rabbit polyclonal anti-ClC-1 antibody (1:50; Alpha Diagnostic International) as previously described (Kanadia, R. N., et al. (2006) Proc Natl Acad Sci USA 103:11748-11753). Muscle sections from ClC-1 null mice and WT FVB mice served as negative and positive controls on each slide. Z-plane stacks consisting of 8 images separated by 0.25 μM were captured and deconvolved using Autoquant v9.3 software (Autoquant Imaging). Maximum-projection images were obtained using Metavue software (Universal Imaging Corporation). Exposure time and thresholding were identical for all comparisons of antisense vs. invert controls.
# ClC-1 protein [2] = assay: ClC-1 immunofluorescence after ClC-1 antisense morpholino, HSA^LR TA muscle; format: in vivo, HSA^LR mice; details: 3 weeks after treatment, vs invert-treated control
# Procedure: (§2) The morpholino was complementary to the 3′ splice site of ClC-1 pre-mRNA. Muscle fibers are outlined by wheat germ agglutinin (wga) and nuclei are highlighted by DAPI. FIGS. 24D and 24 E show brightfield (D) and fluorescence (E) images of a single FDB fiber showing preferential nuclear localization of the antisense morpholino (post injection day 5). […] Bars=20 μM.
# as §1
# [3] = system: nuclear foci containing CUG^exp RNA and MBNL1 protein; assay: FISH and immunofluorescence of ribonuclear inclusions after ClC-1 antisense morpholino; format: in vivo, HSA^LR mice; details: TA muscle, 3 weeks after injection; listed as antisense morpholino
# [4] = Tissue uptake and distribution of carboxyfluorescein-labeled antisense morpholino; format: in vivo, HSA^LR mice; details: for subcellular localization of antisense morpholino: muscle fibers, TA 3 weeks / FDB day 5
# Procedure: Antisense morpholino targeting the 3′ splice junction of ClC-1 exon 7a was injected into foot pad muscle of HSA^LR mice under general anesthesia. Uptake into muscle fibers was enhanced by in vivo electroporation. The morpholino was tagged with fluorescein. 4 days later, individual FDB muscle fibers were isolated. […] As a control, the opposite footpad was injected with morpholino having the inverted sequence. […] The peak current density in HSA^LR mice (center panel) is much lower than in wild-type mice (left panel). However, after morpholino treatment in HSA^LR mice (right panel), the current density is restored to levels that are similar to wild-type mice. […] The antisense morpholino (closed squares) restores chloride current density to normal levels (open circles or triangles).
# as §2
# The strategy for suppressing the inclusion of exon 7a is diagrammed in FIG. 23A. The morpholino AONs were complementary to the 3′ or 5′ splice sites of exon 7a in the ClC-1 pre-mRNA (FIG. 23B). To examine tissue uptake, a carboxyfluorescein-labeled morpholino was injected into tibialis anterior (TA) muscle of HSA^LR mice. […] To improve uptake and distribution of AON, voltage pulses were used to electroporate muscle fibers after the AON injection.
# HSA^LR (Mankodi, A., et al. (2000) Science 289:1769-1773) or Mbnl1^ΔE3/ΔE3 mice (Kanadia, R. N., et al. (2003) Science 302:1978-1980) were anesthetized by intraperitoneal injection of 100 mg/kg ketamine, 10 mg/kg xylazine, and 3 mg/kg acepromazine. TA muscle was pretreated by intramuscular injection of bovine hyaluronidase (15 μl, 0.4 U/μl) (Sigma) (McMahon, J. M., et al. (2001) Gene Ther 8:1264-1270). Two hours later, 10 or 20 μg of morpholino in a total volume of 20 μl phosphate buffered saline (PBS) was injected using a 30-gauge needle. TA muscle was then electroporated using electrodes placed parallel to the long axis of the muscle. Electroporation parameters were 100 V/cm, 10 pulses at 1 Hz, and 20 ms duration per pulse. Antisense or control morpholino with inverted sequence was injected into TA muscles of opposite limbs. The determination of which TA received antisense morpholino was randomized, and investigators remained blinded to this assignment until EMG analyses were completed. Other analyses were performed without blinding. For experiments to determine the distribution of injected oligos, the antisense morpholino was labeled with carboxyfluorescein and cryosections of muscle (10 μM) were examined by fluorescence microscopy, with or without fixation in 4% paraformaldehyde. Some sections were co-labeled with TRITC-wheat germ agglutinin (Parsons, S. A., et al. (2003) Mol Cell Biol 23:4331-4343) (50 μg/ml in PBS; Sigma) and 4′,6-diamidino-2-phenylindole (DAPI) to highlight the surface membranes and nuclei of muscle fibers.
substance,measurement,setting,value
antisense 1: morpholino 5′-CCAGGCACGGTCTGCAACAGAGAAG-3′ targeting the 3′ splice site of ClC-1 exon 7a (all phosphorodiamidate morpholino (PMO)),ClC-1 protein at the sarcolemma (immunofluorescence),ClC-1 protein [1],increased the expression of ClC-1 protein at the sarcolemma
same,sarcolemmal ClC-1 protein,ClC-1 protein [2]; listed as antisense morpholino,increase of sarcolemmal ClC-1 protein
same,sarcolemmal ClC-1 protein,ClC-1 protein [2]; listed as morpholino AON,increased the level of ClC-1 protein in the sarcolemma
same,formation of ribonuclear inclusions (CUG^exp RNA and MBNL1 foci),[3],did not affect the formation of nuclear foci; also recorded: no effect on the formation of ribonuclear inclusions
same,fibers showing fluorescein uptake,"[4]; FDB fibers, 4 days after foot pad injection + electroporation",Greater than 90%
same,tissue uptake of antisense morpholino,[4]; TA injection followed by electroporation,throughout the TA muscle
same,tissue uptake of antisense morpholino,[4]; TA injection without electroporation,limited to the needle track
same,subcellular localization of antisense morpholino,[4]; listed as AON,accumulate preferentially in the nucleus
same,subcellular localization of antisense morpholino,[4]; listed as antisense morpholino,localizes preferentially to muscle nuclei

# — patent publication US9371527B2, “Compositions and methods related to protein displacement therapy for myotonic distrophy” (University of Rochester, priority 2006, dated 2016)
